Measured values: patent publication US8318455B2, “Inducible/regulated gene expression system in E coli” (priority 2007, dated 2012)
Read-outs that look alike come from different tables or passages of the source.

Columns and labels:
[1] = tested on: GFP expression in host cells; test: Plate assay: GFP expression, T7 system vs cumate system; type: cell-based, Escherichia coli; settings: plates with IPTG (1 mM) or cumate (0.12 mM); FIG. 4
Procedure: Host cell transformation and gene expression. pNEW vectors harbouring different genes of interest were transformed into various E. coli cells by chemical or electroporation methods (Sambrook and Russell, 2000). The transformed cells were grown at 37° C. in LB medium, and expression of genes under developed system was induced with 20 μg/ml cumate or as indicated.
(§1) Detection of gene expression. Detection of GFP was carried out by fluorescence microscopy, and quantified by using a SPECTRAFluor Plus (TECAN Austria Gmbh, Grodïg, Austria) under excitation and emission wavelengths of 485 and 508 nm, respectively. Concentration of GFP was calculated based on a linear relationship between concentration and fluorescence units determined using solutions of purified GFP (Qbiogene). The biomass (X) was determined by cell dry weight measurement of the samples (Moisture Analyzer MA 30, Sartorius).
FIG. 4 depicts a comparison between T7 system and cumate system for GFP expression in plates containing IPTG (1 mM) and cumate (0.12 mM) as inducer, respectively.

[2] = tested on: GFP expression in E. coli BL21(DE3)pLysS; type: cell-based, Escherichia coli; settings: for GFP yield / course of induced GFP expression (time of maximum): 100 μm inducer; for state of the induced culture (lysis, foaming): fermenter culture, after 8 hours post induction; for specific yield of GFP / total yield of GFP: defined medium A; for course of induced GFP expression (time of maximum): post induction, FIG. 10A
Procedure: Benchtop Fermentations. Batch fermentation experiments were carried out in a 14-I bioreactor (BioFlo 110, New Brunswick Scientific, Edison, N.J. USA) to compare GFP production yield between T7 expression system and cumate system. For the batch culture, pre-cultures were used to inoculate the bioreactor filled with 5 l of medium A (Yoon et al, 2003) and initial O.D. was adjusted to 0.1 for both expression systems. The cultures induced with IPTG for T7 system and cumate for cumate system when O.D. reached at 38 to 42. For cultures carried out in bioreactors, pH and dissolved oxygen were controlled at 7 and 25%, respectively.
as §1
All results obtained were in defined medium A. The value ‘x’ is dry weight in g/L.
All results obtained were in defined medium A.

[3] = 45 minutes post induction, FIG. 9C
[4] = 2 hours post induction, FIG. 9E
[5] = 3 hours post induction, FIG. 9F
[6] = inducer 100 μM, induction time 1 h
[7] = inducer 100 μM, induction time 2 h
[8] = inducer 100 μM, induction time 4 h
[9] = inducer 100 μM, induction time 5 h
[10] = inducer 100 μM, induction time 6 h
[11] = inducer 100 μM, induction time 7 h
[12] = inducer 100 μM, induction time 8 h
[13] = inducer 100 μM, induction time 9 h
[14] = inducer 1000 μM, induction time 1 h
[15] = inducer 1000 μM, induction time 2 h
[16] = inducer 1000 μM, induction time 4 h
[17] = inducer 1000 μM, induction time 5 h
[18] = inducer 1000 μM, induction time 6 h
[19] = inducer 1000 μM, induction time 7 h
[20] = inducer 1000 μM, induction time 8 h
[21] = inducer 1000 μM, induction time 9 h

## CC(C)c1ccc(C(=O)O)cc1 [Cumate, p-cumate]
[1]
  GFP expression on plates, comparison of systems: dramatically outperforms the IPTG system
[2]; [3]
  GFP yield: 30 mg/g
[2]; 1 hour post induction, FIG. 9D
  GFP yield: 38 mg/g
[2]; [4]
  GFP yield: 84 mg/g
[2]; [5]
  GFP yield: 123 mg/g
[2]; cultures induced with 1000 μM IPTG or cumate
  cumate induced GFP yield relative to IPTG induced culture: more than double
[2]
  state of the induced culture (lysis, foaming): no lysis occurred
  course of induced GFP expression (time of maximum): > 8 h
[2]; [6]
  specific yield of GFP: 38 mg/g x
  total yield of GFP: 602 mg/L
[2]; [7]
  specific yield of GFP: 84 mg/g x
  total yield of GFP: 644 mg/L
[2]; [8]
  specific yield of GFP: 123 mg/g x
  total yield of GFP: 3002 mg/L
[2]; [9]
  specific yield of GFP: 164 mg/g x
  total yield of GFP: 4719 mg/L
[2]; [10]
  specific yield of GFP: 176 mg/g x
  total yield of GFP: 5443 mg/L
[2]; [11]
  specific yield of GFP: 165 mg/g x
  total yield of GFP: 6194 mg/L
[2]; [12]
  specific yield of GFP: 193 mg/g x
  total yield of GFP: 6977 mg/L
[2]; [13]
  specific yield of GFP: 222 mg/g x
  total yield of GFP: 7838 mg/L
[2]; [14]
  specific yield of GFP: 36 mg/g x
  total yield of GFP: 486 mg/L
[2]; [15]
  specific yield of GFP: 71 mg/g x
  total yield of GFP: 1459 mg/L
[2]; [16]
  specific yield of GFP: 110 mg/g x
  total yield of GFP: 2851 mg/L
[2]; [17]
  specific yield of GFP: 141 mg/g x
  total yield of GFP: 4593 mg/L
[2]; [18]
  specific yield of GFP: 149 mg/g x
  total yield of GFP: 4885 mg/L
[2]; [19]
  specific yield of GFP: 155 mg/g x
  total yield of GFP: 5989 mg/L
[2]; [20]
  specific yield of GFP: 249 mg/g x
  total yield of GFP: 9666 mg/L
[2]; [21]
  specific yield of GFP: 289 mg/g x
  total yield of GFP: 11150 mg/L

## CC(C)S[C@@H]1O[C@H](CO)[C@H](O)[C@H](O)[C@H]1O [IPTG, isopropyl-beta-D-thiogalactopyranoside]
[2]; [3]
  GFP yield: 27 mg/g
[2]; 1 hour post induction, FIG. 9D
  GFP yield: 37 mg/g
[2]; [4]
  GFP yield: 74 mg/g
[2]; [5]
  GFP yield: 90 mg/g
[2]
  state of the induced culture (lysis, foaming): quickly began to lyse
  course of induced GFP expression (time of maximum): 4 h
[2]; [6]
  specific yield of GFP: 37 mg/g x
  total yield of GFP: 554 mg/L
[2]; [7]
  specific yield of GFP: 74 mg/g x
  total yield of GFP: 1300 mg/L
[2]; [8]
  specific yield of GFP: 90 mg/g x
  total yield of GFP: 1778 mg/L
[2]; [9]
  specific yield of GFP: 96 mg/g x
  total yield of GFP: 2486 mg/L
[2]; [10]
  specific yield of GFP: 85 mg/g x
  total yield of GFP: 2035 mg/L
[2]; [11]
  specific yield of GFP: 58 mg/g x
  total yield of GFP: 1567 mg/L
[2]; [12]
  specific yield of GFP: 68 mg/g x
  total yield of GFP: 1948 mg/L
[2]; [13]
  specific yield of GFP: 67 mg/g x
  total yield of GFP: 2090 mg/L
[2]; [14]
  specific yield of GFP: 37 mg/g x
  total yield of GFP: 606 mg/L
[2]; [15]
  specific yield of GFP: 60 mg/g x
  total yield of GFP: 1191 mg/L
[2]; [16]
  specific yield of GFP: 83 mg/g x
  total yield of GFP: 1966 mg/L
[2]; [17]
  specific yield of GFP: 103 mg/g x
  total yield of GFP: 2464 mg/L
[2]; [18]
  specific yield of GFP: 118 mg/g x
  total yield of GFP: 3340 mg/L
[2]; [19]
  specific yield of GFP: 135 mg/g x
  total yield of GFP: 4238 mg/L
[2]; [20]
  specific yield of GFP: 145 mg/g x
  total yield of GFP: 4079 mg/L
